test system: HCV replicon cells; test: Cell-based HCV replicon assay (replicon RNA by Taqman real time PCR); conditions: HCV replicon 1b, cells harvested on day 3; read-out: 1b EC50

Structure (SMILES) | EC50
CCOc1nc(N)nc2c1ncn2[C@@H]1O[C@@H]2COP(=O)(OC3CCC3)O[C@H]2[C@@]1(C)N=[N+]=[N-] (single isomer, unassigned) [Compound 108] | 24.1 µM

same assay, conditions: Hepatitis C virus, 72 h, HCV replicon 1b, cells harvested on day 3; read-out: 1b EC50

Structure (SMILES) | EC50
C[C@@]1(N=[N+]=[N-])[C@H](O)[C@@H](CO)O[C@H]1n1ccc(N)nc1=O [Compound 1] | 26 µM

same assay, conditions: Hepatitis C virus, 72 h, read-out: 1b EC50

Structure (SMILES) | EC50
COC(=O)[C@H](C)NP(=O)(OC[C@H]1O[C@@H](n2ccc(=O)[nH]c2=O)[C@](C)(N=[N+]=[N-])[C@@H]1O)Oc1cc(C)ccc1C(C)C (stereo partly drawn) [Compound 379] | 1.2 µM
CCOc1nc(N)nc2c1ncn2[C@@H]1O[C@H](COP(=O)(N[C@@H](C)C(=O)OC(C)C)Oc2ccc(F)cc2)[C@@H](O)[C@@]1(C)N=[N+]=[N-] (stereo partly drawn) [Compound 347] | 0.7 µM
CCOc1nc(N)nc2c1ncn2[C@@H]1O[C@@H]2COP(=O)(OC)O[C@H]2[C@@]1(C)N=[N+]=[N-] (stereo partly drawn) [Compound 25] | 13 µM
C[C@H](NP(=O)(OC[C@H]1O[C@@H](n2ccc(N)nc2=O)[C@](C)(N=[N+]=[N-])[C@@H]1O)Oc1ccccc1)C(=O)OC1CCCC1 (stereo partly drawn) [Compound 97] | 15 µM
CCOc1nc(N)nc2c1ncn2[C@@H]1O[C@H](COP(=O)(N[C@@H](C)C(=O)OC)Oc2cccc3ccccc23)[C@@H](O)[C@@]1(C)N=[N+]=[N-] (stereo partly drawn) [Compound 70] | 0.4 µM
COC(=O)[C@H](C)NP(=O)(OC[C@H]1O[C@@H](n2cnc3c(OC)nc(N)nc32)[C@](C)(N=[N+]=[N-])[C@@H]1O)Oc1ccc(Cl)cc1 (single isomer, unassigned) [Compound 258] | 0.8 µM
C[C@H](NP(=O)(OC[C@H]1O[C@@H](n2ccc(=O)[nH]c2=O)[C@](C)(N=[N+]=[N-])[C@@H]1O)Oc1ccc(Cl)cc1)C(=O)OC1CCCCC1 (stereo partly drawn) [Compound 324] | 4.3 µM
COC(=O)[C@H](C)NP(=O)(OC[C@H]1O[C@@H](n2ccc(=O)[nH]c2=O)[C@](C)(N=[N+]=[N-])[C@@H]1O)Oc1ccccc1 (stereo partly drawn) [Compound 5] | 3.3 µM
CCCCOC(=O)[C@H](C)NP(=O)(OC[C@H]1O[C@@H](n2cnc3c(OCC)nc(N)nc32)[C@](C)(N=[N+]=[N-])[C@@H]1O)Oc1ccccc1 (single isomer, unassigned) [Compound 167] | 1.2 µM
CCCCOC(=O)[C@H](C)NP(=O)(OC[C@H]1O[C@@H](n2ccc(=O)[nH]c2=O)[C@](C)(N=[N+]=[N-])[C@@H]1O)Oc1ccccc1 (stereo partly drawn) [Compound 26] | 0.6 µM
CCOC(=O)[C@H](C)NP(=O)(OC[C@H]1O[C@@H](n2cnc3c(NC4CC4)nc(N)nc32)[C@](C)(N=[N+]=[N-])[C@@H]1O)Oc1ccccc1 (stereo partly drawn) [Compound 387] | 1.9 µM
CCOC(=O)[C@H](C)NP(=O)(OC[C@H]1O[C@@H](n2cnc3c(OCC)nc(N)nc32)[C@](C)(N=[N+]=[N-])[C@@H]1O)Oc1ccccc1Cl (single isomer, unassigned) [Compound 358] | 2.3 µM
COc1nc(N)nc2c1ncn2[C@@H]1O[C@H](COP(=O)(N[C@@H](C)C(=O)OCc2ccccc2)Oc2ccccc2)[C@@H](O)[C@@]1(C)N=[N+]=[N-] (stereo partly drawn) [Compound 246] | 0.6 µM
CCCOC(=O)[C@H](C)N[P@](=O)(OC[C@H]1O[C@@H](n2ccc(=O)[nH]c2=O)[C@](C)(N=[N+]=[N-])[C@@H]1O)Oc1cccc2ccccc12 (single isomer, unassigned) [Compound 376] | 2.2 µM
COc1nc(N)nc2c1ncn2[C@@H]1O[C@H](COP(=O)(N[C@@H](C)C(=O)OC(C)C)Oc2ccc(Cl)c(Cl)c2)[C@@H](O)[C@@]1(C)N=[N+]=[N-] (single isomer, unassigned) [Compound 282] | 5 µM
CCOC(=O)c1ccccc1OP(=O)(N[C@@H](C)C(=O)OC)OC[C@H]1O[C@@H](n2cnc3c(OC)nc(N)nc32)[C@](C)(N=[N+]=[N-])[C@@H]1O (stereo partly drawn) [Compound 224] | 3.3 µM

same assay, conditions: read-out: 1b EC50

Structure (SMILES) | EC50
CCCCOC(=O)[C@H](C)NP(=O)(OC[C@H]1O[C@@H](n2ccc(=O)[nH]c2=O)[C@](C)(N=[N+]=[N-])[C@@H]1O)Oc1ccccc1 (single isomer, unassigned) [Compound 170] | 1.5 µM
COC(=O)[C@H](C)NP(=O)(OC[C@H]1O[C@@H](n2ccc(=O)[nH]c2=O)[C@](C)(N=[N+]=[N-])[C@@H]1O)Oc1ccc(Cl)cc1 (single isomer, unassigned) [Compound 327] | 1.7 µM
C[C@H](NP(=O)(OC[C@H]1O[C@@H](n2ccc(=O)[nH]c2=O)[C@](C)(N=[N+]=[N-])[C@@H]1O)Oc1ccc(F)cc1)C(=O)OC1CCCCC1 (single isomer, unassigned) [Compound 233] | 2.1 µM
COC(=O)[C@H](C)NP(=O)(OC[C@H]1O[C@@H](n2cnc3c(OC)nc(N)nc32)[C@](C)(N=[N+]=[N-])[C@@H]1O)Oc1ccc(Cl)cc1 (single isomer, unassigned) [Compound 259] | 0.6 µM
C[C@H](NP(=O)(OC[C@H]1O[C@@H](n2ccc(N)nc2=O)[C@](C)(N=[N+]=[N-])[C@@H]1O)Oc1ccccc1)C(=O)OC1CCCCC1 (single isomer, unassigned) [Compound 338] | 26 µM
C[C@H](NP(=O)(OC[C@H]1O[C@@H](n2ccc(N)nc2=O)[C@](C)(N=[N+]=[N-])[C@@H]1O)Oc1ccccc1)C(=O)OC1CCCC1 (stereo partly drawn) [Compound 336] | 15 µM
CCOC(=O)[C@H](C)NP(=O)(OC[C@H]1O[C@@H](n2cnc3c(OC)nc(N)nc32)[C@](C)(N=[N+]=[N-])[C@@H]1O)Oc1ccc(F)cc1 (single isomer, unassigned) [Compound 270] | 1.8 µM
COc1nc(N)nc2c1ncn2[C@@H]1O[C@H](COP(=O)(N[C@@H](C)C(=O)OC2CCCCC2)Oc2ccc(F)cc2)[C@@H](O)[C@@]1(C)N=[N+]=[N-] (single isomer, unassigned) [Compound 265] | 2.5 µM
CCCCOC(=O)[C@H](C)NP(=O)(OC[C@H]1O[C@@H](n2cnc3c(OC)nc(N)nc32)[C@](C)(N=[N+]=[N-])C1O)Oc1cccc2ccccc12 (single isomer, unassigned) [Compound 298] | 0.1 µM
CCOc1nc(N)nc2c1ncn2[C@@H]1O[C@H](COP(=O)(N[C@@H](C)C(=O)OC(C)C)Oc2ccc(F)cc2)[C@@H](O)[C@@]1(C)N=[N+]=[N-] (single isomer, unassigned) [Compound 364] | 6.4 µM
COC(=O)[C@H](C)NP(=O)(OC[C@H]1O[C@@H](n2cnc3c(OC)nc(N)nc32)[C@](C)(N=[N+]=[N-])[C@@H]1O)Oc1ccc(F)cc1 (single isomer, unassigned) [Compound 267] | 0.7 µM
C[C@H](NP(=O)(OC[C@H]1O[C@@H](n2ccc(=O)[nH]c2=O)[C@](C)(N=[N+]=[N-])[C@@H]1O)Oc1ccc(F)cc1)C(=O)OC1CCCCC1 (single isomer, unassigned) [Compound 232] | > 100 µM
CCOC(=O)[C@H](C)NP(=O)(OC[C@H]1O[C@@H](n2cnc3c(OC)nc(N)nc32)[C@](C)(N=[N+]=[N-])[C@@H]1O)Oc1ccccc1 (stereo partly drawn) [Compound 54] | 0.3 µM
C[C@H](NP(=O)(OC[C@H]1O[C@@H](n2ccc(N)nc2=O)[C@](C)(N=[N+]=[N-])[C@@H]1O)Oc1ccccc1Cl)C(=O)OCC(C)(C)C (single isomer, unassigned) [Compound 181] | 3.8 µM
COC(=O)[C@H](C)NP(=O)(OC[C@H]1O[C@@H](n2cnc3c(OC)nc(N)nc32)[C@](C)(N=[N+]=[N-])C1O)Oc1cccc2ccccc12 (single isomer, unassigned) [Compound 255] | 1.2 µM

Reference: US9156872B2, “2′-azido substituted nucleoside derivatives and methods of use thereof for the treatment of viral diseases” (priority 2011, dated 2015)
